Measured values reported in patent publication US20240101570A1 (AMGEN INC., priority 2020, published 2024).
Where two headings read alike, the source gives them in different places.

What was measured:
HCT116 MTAP null cells = assay: HCT116 MTAP null cell proliferation / viability (CellTiter-Glo, 6 days); format: cell-based; details: for IC50: HCT116 MTAP null cells, 6 days, CellTiter-Glo, read-out: HCT-116 MTAP null IC50; for potency of enantiomer relative to the other enantiomer, measured by IC50 in HCT116 MTAP null cell viability assay: comparison of the two SFC-separated enantiomers
Method: (§1) HCT116 MTAP null and WT cells were seeded in 96-well tissue culture plates in RPMI 1640 media+10% fetal bovine serum. Plates were incubated overnight at 37° C. and 5% CO2. Cells were then treated with an 8- or 9-point serial dilution of compound, using a top concentration of 1, or 10 μM, 1:3 serial dilution steps and, a DMSO-only control. Cells were incubated in the presence of drug for 6 days. Effects on cell viability were measured with the CellTiter-Glo® Luminescent Cell Viability Assay (Promega) per manufacturer's recommendation. Assay plates were read on an EnVision™ Multilabel Reader using the Ultra-Sensitive luminescence module. IC50 values were calculated with GraphPad Prism v 5.01 using symmetrical sigmoidal dose-response least squares fit with Hill slope fixed to −1 and top constrain to 100% or GeneData Screener using a 4-parameter logistic model to fit dose response curves.
(§2) Alternatively, compounds could be assayed with a 384 well plate format:
(§3) Compounds were pre-spotted into 384 well plates with a 22-point serial dilution of compound, using a top concentration of 10 or 50 μM, 1:2 serial dilution steps and, a DMSO-only control. HCT116 MTAP null and WT cells were then seeded as above and after 6 days effects on cell viability were measured with the CellTiter-Glo® Luminescent Cell Viability Assay (Promega). Assay plates were read as above and IC50 values were calculated with GeneData Screener using a 4-parameter logistic model to fit dose response curves. The reported IC50 represents the value where the curve transits 50% of control.

HCT116 WT cells = assay: HCT116 WT cell proliferation / viability (CellTiter-Glo, 6 days); format: cell-based; details: HCT116 WT cells, 6 days, CellTiter-Glo, read-out: HCT-116 WT IC50
Method: as §1, §2, §3

Row | SMILES | IC50 (HCT116 MTAP null cells; HCT116-MTAP null, 144 h) [nM] | IC50 (HCT116 WT cells; Homo sapiens, HCT-116, 144 h) [nM] | potency of enantiomer relative to the other enantiomer, measured by IC50 in HCT116 MTAP null cell viability assay (HCT116 MTAP null cells) | IC50 (HCT116 MTAP null cells) [nM] | IC50 (HCT116 WT cells) [nM]
1 | CC(c1ccc(C(F)(F)F)cn1)N(C)C(=O)c1ccc2nc(N)c3c(c2c1)COC3 (racemic) [Example 697, 4-amino-N-methyl-N-((1R)-1-(5-(trifluoromethyl)-2-pyridinyl)ethyl)-1,3-dihydrofuro[3,4-c]quinoline-8-carboxamide and 4-amino-N-methyl-N-((1S)-1-(5-(trifluoromethyl)-2-pyridinyl)ethyl)-1,3-dihydrofuro[3,4-c]quinoline-8-carboxamide] | 121 | 4430 |  |  | 
2 | CC(c1ccc(C(F)(F)F)cn1)N(C)C(=O)c1cnc2nc(N)c3c(c2c1)COC3 (racemic) [Example 700, 4-amino-N-methyl-N-((1R)-1-(5-(trifluoromethyl)-2-pyridinyl)ethyl)-1,3-dihydrofuro[3,4-c][1,8]naphthyridine-8-carboxamide and 4-amino-N-methyl-N-((1S)-1-(5-(trifluoromethyl)-2-pyridinyl)ethyl)-1,3-dihydrofuro[3,4-c][1,8]naphthyridine-8-carboxamide] | 1100 | > 10000 |  |  | 
3 | CCN(C(=O)c1cnc2nc(N)c3c(c2c1)COC3)C(C)c1ccc(C(F)(F)F)cn1 (racemic) [Example 705, 4-amino-N-ethyl-N-((1R)-1-(5-(trifluoromethyl)-2-pyridinyl)ethyl)-1,3-dihydrofuro[3,4-c][1,8]naphthyridine-8-carboxamide and 4-amino-N-ethyl-N-((1S)-1-(5-(trifluoromethyl)-2-pyridinyl)ethyl)-1,3-dihydrofuro[3,4-c][1,8]naphthyridine-8-carboxamide] | 637 | 28500 |  |  | 
4 | C[C@H](CF)N(Cc1ccc(C#N)cn1)C(=O)c1ccc2nc(N)c3c(c2c1)COC3 (single isomer, unassigned) [Example 577] | 3260 | > 10000 | more potent |  | 
5 | C[C@@H](CF)N(Cc1ccc(C#N)cn1)C(=O)c1ccc2nc(N)c3c(c2c1)COC3 (single isomer, unassigned) [Example 578] | 338 | 4930 | less potent |  | 
6 | CC(C)CN(Cc1ccc(C(F)(F)F)cn1)C(=O)c1ccc2nc(N)c3c(c2c1)CO[C@H]3CO (single isomer, unassigned) [Example 579] | 348 | 5620 |  |  | 
7 | CC(C)CN(Cc1ccc(C(F)(F)F)cn1)C(=O)c1ccc2nc(N)c3c(c2c1)CO[C@@H]3CO (single isomer, unassigned) [Example 580] | 321 | 10800 |  |  | 
8 | N#CC[C@H](C1CC1)N(Cc1ccc(C#N)cn1)C(=O)c1ccc2nc(N)c3c(c2c1)COC3 (single isomer, unassigned) [Example 581] | 809 | 10200 |  |  | 
9 | N#CC[C@@H](C1CC1)N(Cc1ccc(C#N)cn1)C(=O)c1ccc2nc(N)c3c(c2c1)COC3 (single isomer, unassigned) [Example 582] | 36 | 558 |  |  | 
10 | CO[C@@H]1CCOC[C@H]1N(Cc1ccc(C#N)c(C)n1)C(=O)c1ccc2nc(N)c3c(c2c1)COC3 (single isomer, unassigned) [Example 583] |  |  |  | 173 | 4820
11 | CO[C@@H]1COCC[C@H]1N(Cc1ccc(C(F)(F)F)cn1)C(=O)c1ccc2nc(N)c3c(c2c1)COC3 (single isomer, unassigned) [Example 584] | 14 | 164 |  |  | 

More lines, now with the values ahead:

Row | IC50 (HCT116 MTAP null cells; HCT116-MTAP null, 144 h) [nM] | IC50 (HCT116 WT cells; Homo sapiens, HCT-116, 144 h) [nM] | potency of enantiomer relative to the other enantiomer, measured by IC50 in HCT116 MTAP null cell viability assay (HCT116 MTAP null cells) | IC50 (HCT116 MTAP null cells) [nM] | IC50 (HCT116 WT cells) [nM] | SMILES
12 | 76 | 4250 |  |  |  | CC(c1ccc(C(F)(F)F)cn1)N(C)C(=O)c1cc2c3c(c(N)nc2cn1)COC3 (racemic) [Example 709, 4-amino-N-methyl-N-((1R)-1-(5-(trifluoromethyl)-2-pyridinyl)ethyl)-1,3-dihydrofuro[3,4-c][1,7]naphthyridine-8-carboxamide and 4-amino-N-methyl-N-((1S)-1-(5-(trifluoromethyl)-2-pyridinyl)ethyl)-1,3-dihydrofuro[3,4-c][1,7]naphthyridine-8-carboxamide]
13 | 917 | 33300 |  |  |  | CC(c1ccc(C(F)(F)F)cn1)N(C)C(=O)c1ccc2nc(N)c3c(cnn3C)c2c1 (racemic) [Example 716, 4-amino-N,3-dimethyl-N-((1R)-1-(5-(trifluoromethyl)-2-pyridinyl)ethyl)-3H-pyrazolo[3,4-c]quinoline-8-carboxamide and 4-amino-N,3-dimethyl-N-((1S)-1-(5-(trifluoromethyl)-2-pyridinyl)ethyl)-3H-pyrazolo[3,4-c]quinoline-8-carboxamide]
14 | 1030 | 21800 |  |  |  | CCN(C(=O)c1cc2c3c(c(N)nc2cc1F)COC3)C(C)c1ccc(C(F)(F)F)cn1 (racemic) [Example 719, 4-amino-N-ethyl-7-fluoro-N-((1R)-1-(5-(trifluoromethyl)-2-pyridinyl)ethyl)-1,3-dihydrofuro[3,4-c]quinoline-8-carboxamide and 4-amino-N-ethyl-7-fluoro-N-((1S)-1-(5-(trifluoromethyl)-2-pyridinyl)ethyl)-1,3-dihydrofuro[3,4-c]quinoline-8-carboxamide]
15 | 854 | > 50000 |  |  |  | CC(c1ncc(F)cn1)N(CCOC(F)(F)F)C(=O)c1cc2c3c(c(N)nc2cc1F)COC3 (racemic) [Example 725, 4-amino-7-fluoro-N-((1R)-1-(5-fluoro-2-pyrimidinyl)ethyl)-N-(2-(trifluoromethoxy)ethyl)-1,3-dihydrofuro[3,4-c]quinoline-8-carboxamide and 4-amino-7-fluoro-N-((1S)-1-(5-fluoro-2-pyrimidinyl)ethyl)-N-(2-(trifluoromethoxy)ethyl)-1,3-dihydrofuro[3,4-c]quinoline-8-carboxamide]
16 | 279 | 12300 |  |  |  | CCN(C(=O)c1ccc2nc(N)c3c(c2c1)COC3)C(C)c1ccc(Cl)nc1 (racemic) [Example 727, 4-amino-N-((1R)-1-(6-chloro-3-pyridinyl)ethyl)-N-ethyl-1,3-dihydrofuro[3,4-c]quinoline-8-carboxamide and 4-amino-N-((1S)-1-(6-chloro-3-pyridinyl)ethyl)-N-ethyl-1,3-dihydrofuro[3,4-c]quinoline-8-carboxamide]
17 | 59 | 2380 |  |  |  | CCN(C(=O)c1cc2c3c(c(N)nc2cc1Cl)COC3)C(C)c1ccc(Cl)nc1 (racemic) [Example 737, 4-amino-7-chloro-N-((1R)-1-(6-chloro-3-pyridinyl)ethyl)-N-ethyl-1,3-dihydrofuro[3,4-c]quinoline-8-carboxamide and 4-amino-7-chloro-N-((1S)-1-(6-chloro-3-pyridinyl)ethyl)-N-ethyl-1,3-dihydrofuro[3,4-c]quinoline-8-carboxamide]
18 | 71 | 2220 |  |  |  | CCN(C(=O)c1cc2c3c(c(N)nc2cc1F)COC3)C(C)c1ccc(Cl)nc1 (racemic) [Example 739, 4-amino-N-((1R)-1-(6-chloro-3-pyridinyl)ethyl)-N-ethyl-7-fluoro-1,3-dihydrofuro[3,4-c]quinoline-8-carboxamide and 4-amino-N-((1S)-1-(6-chloro-3-pyridinyl)ethyl)-N-ethyl-7-fluoro-1,3-dihydrofuro[3,4-c]quinoline-8-carboxamide]
19 | 6380 | > 50000 |  |  |  | CN(C(=O)c1cc2c3c(c(N)nc2cn1)COC3)C(c1ccc(C(F)(F)F)cn1)C1CC1 (racemic) [Example 764, 4-amino-N-((R)-cyclopropyl(5-(trifluoromethyl)-2-pyridinyl)methyl)-N-methyl-1,3-dihydrofuro[3,4-c][1,7]naphthyridine-8-carboxamide and 4-amino-N-((S)-cyclopropyl(5-(trifluoromethyl)-2-pyridinyl)methyl)-N-methyl-1,3-dihydrofuro[3,4-c][1,7]naphthyridine-8-carboxamide]
20 | 374 | 18200 |  |  |  | CC(c1ccc(F)cn1)N(C)C(=O)c1cc2c3c(c(N)nc2cc1Cl)COC3 (racemic) [Example 772, 4-amino-7-chloro-N-((1R)-1-(5-fluoro-2-pyridinyl)ethyl)-N-methyl-1,3-dihydrofuro[3,4-c]quinoline-8-carboxamide and 4-amino-7-chloro-N-((1S)-1-(5-fluoro-2-pyridinyl)ethyl)-N-methyl-1,3-dihydrofuro[3,4-c]quinoline-8-carboxamide]
21 | 22 | 3000 |  |  |  | CC1OCc2c1c(N)nc1ccc(C(=O)N(Cc3ccc(C(F)(F)F)cn3)[C@H]3C[C@@H]3C(F)(F)F)cc21 (mixture of isomers) [Example 910, 4-amino-3-methyl-N-((1R,2R)-2-(trifluoromethyl)cyclopropyl)-N-((5-(trifluoromethyl)-2-pyridinyl)methyl)-1,3-dihydrofuro[3,4-c]quinoline-8-carboxamide and 4-amino-3-methyl-N-((1S,2S)-2-(trifluoromethyl)cyclopropyl)-N-((5-(trifluoromethyl)-2-pyridinyl)methyl)-1,3-dihydrofuro[3,4-c]quinoline-8-carboxamide]
